Values of other authors as cited in patent publication US20060139426A1, “Ink, ink set, processing solution, recording method, recording medium, ink tank, and recording device” (Fuji Xerox Co., Ltd., priority 2004, published 2006).

For `O=C(O)c1ccco1` [2-Furancarboxylic acid], the pKa is given as 2.4.
